Results: ChEMBL document CHEMBL4350991, “Design, synthesis, and biological evaluation of rutacecarpine derivatives as multitarget-directed ligands for the treatment of Alzheimer's disease” (Eur J Med Chem, 2019)

Legend:
PC-12 [1] = experiment: cells; assay type: functional; conditions: Rattus norvegicus
Acetylcholinesterase = Acetylcholinesterase (Electrophorus electricus, UniProt O42275); assay type: ADME
Description: Inhibition of electric eel AChE using acetylthiocholine iodide as substrate preincubated for 30 mins followed by substrate addition and measured after 30 mins by Ellman's method

Cholinesterase = Cholinesterase (Equus caballus, UniProt P81908)
Description: Inhibition of equine serum BuChE using S-butyrylthiocholine iodide as substrate preincubated with enzyme for 30 mins followed by substrate addition and measured after 30 mins by Ellman's method

PC-12 [2] = experiment: cells; assay type: functional; conditions: Rattus norvegicus; remark: listed apart in the source
PC-12 [3] = experiment: cells; assay type: functional; conditions: Rattus norvegicus; remark: listed apart in the source
PC-12 [4] = experiment: cells; assay type: functional; conditions: Rattus norvegicus; remark: listed apart in the source
PC-12 [5] = experiment: cells; assay type: functional; conditions: Rattus norvegicus; remark: listed apart in the source
PC-12 [6] = experiment: Neuroprotective activity against H2O2 induced cytotoxicity in rat PC12 cells assessed as increase in cell viability pretreated for 3 hrs followed by H2O2 challenge measured after 24 hrs by MTT assay; assay type: functional, cell-based
[7] = n-Octanol-phosphate buffer partition co-efficient, log P of compound at pH 7.4 incubated for 48 hrs by UV spectrophotometry-based shake-flask method; assay type: physicochemical

Sequence of Acetylcholinesterase (O42275 whole entry): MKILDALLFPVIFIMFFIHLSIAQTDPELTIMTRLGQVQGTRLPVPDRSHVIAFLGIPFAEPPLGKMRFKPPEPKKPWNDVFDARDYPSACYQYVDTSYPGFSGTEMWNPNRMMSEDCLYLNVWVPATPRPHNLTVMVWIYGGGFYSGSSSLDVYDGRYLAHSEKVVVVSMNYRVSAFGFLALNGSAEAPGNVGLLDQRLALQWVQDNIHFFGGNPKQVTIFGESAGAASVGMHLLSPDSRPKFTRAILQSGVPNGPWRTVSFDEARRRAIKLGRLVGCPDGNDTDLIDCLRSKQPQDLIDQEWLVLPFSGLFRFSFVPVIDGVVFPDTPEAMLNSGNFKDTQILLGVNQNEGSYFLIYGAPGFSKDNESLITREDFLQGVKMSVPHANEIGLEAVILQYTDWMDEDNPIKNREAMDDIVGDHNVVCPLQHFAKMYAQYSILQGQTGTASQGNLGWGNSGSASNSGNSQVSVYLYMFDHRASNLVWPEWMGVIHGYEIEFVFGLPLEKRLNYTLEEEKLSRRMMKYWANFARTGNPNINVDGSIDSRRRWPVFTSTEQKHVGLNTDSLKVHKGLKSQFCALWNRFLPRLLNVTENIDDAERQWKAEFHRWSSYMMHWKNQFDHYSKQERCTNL
Sequence of Cholinesterase (P81908 whole entry): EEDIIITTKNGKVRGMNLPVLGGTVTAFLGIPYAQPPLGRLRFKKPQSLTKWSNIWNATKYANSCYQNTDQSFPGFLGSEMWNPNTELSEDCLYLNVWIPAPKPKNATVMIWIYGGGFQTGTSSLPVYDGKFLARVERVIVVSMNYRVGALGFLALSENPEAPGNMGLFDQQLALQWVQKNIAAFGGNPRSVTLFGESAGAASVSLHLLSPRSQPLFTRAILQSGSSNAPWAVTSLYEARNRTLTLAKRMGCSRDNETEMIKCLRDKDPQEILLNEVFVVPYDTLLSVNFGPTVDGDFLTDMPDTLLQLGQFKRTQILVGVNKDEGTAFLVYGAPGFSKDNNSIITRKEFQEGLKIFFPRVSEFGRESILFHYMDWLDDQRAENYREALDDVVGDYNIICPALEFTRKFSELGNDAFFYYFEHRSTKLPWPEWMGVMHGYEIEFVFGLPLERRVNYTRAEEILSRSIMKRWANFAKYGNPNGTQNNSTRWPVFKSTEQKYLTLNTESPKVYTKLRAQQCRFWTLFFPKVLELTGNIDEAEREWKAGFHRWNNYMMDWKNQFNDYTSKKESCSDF

Row | Structure (SMILES) | viability at 10 µM (PC-12 [1]) [%] | IC50 (Acetylcholinesterase) [µM] | IC50 (Cholinesterase) [µM] | viability at 1 µM (PC-12 [2]) [%] | viability at 50 µM (PC-12 [3]) [%] | viability at 30 µM (PC-12 [4]) [%] | viability at 5 µM (PC-12 [5]) [%] | Activity (PC-12 [6]) | logD at 48 h [7]
1 | COC(=O)c1sccc1S(=O)(=O)Nc1ccc2nc3n(c(=O)c2c1)CCc1c-3[nH]c2ccccc12 | 39.9 | > 100 | > 100 | 35.9 | 38 | 39.8 | 42.5 | – | –
2 | O=c1c2cc(NS(=O)(=O)c3cc(Cl)cc(Cl)c3)ccc2nc2n1CCc1c-2[nH]c2ccccc12 | 47.9 | 84.4 | 7.94 | 42.4 | 69.5 | 59.6 | 45.3 | Dose-dependent effect | 3.21
3 | O=c1c2cc(NS(=O)(=O)c3cccc([N+](=O)[O-])c3)ccc2nc2n1CCc1c-2[nH]c2ccccc12 | 40.9 | > 100 | 23.3 | 27 | 25.6 | 34 | 38.7 | – | –
4 | CC(C)(C)c1ccc(S(=O)(=O)Nc2ccc3nc4n(c(=O)c3c2)CCc2c-4[nH]c3ccccc23)cc1 | 41.2 | > 100 | 13 | 37.6 | 43.6 | 41.7 | 39.9 | – | –
5 | COc1cc2c(cc1OC)C(=O)C(CC1CCN(Cc3ccccc3)CC1)C2 (stereo unspecified) [DONEPEZIL] | 65.5 | – | – | 49.2 | 76.7 | 68.9 | 57.1 | – | –
6 | O=c1c2cc(NS(=O)(=O)c3ccc(Br)cc3)ccc2nc2n1CCc1c-2[nH]c2ccccc12 | 44.1 | 40.4 | 8.94 | 39.9 | 47.6 | 45.4 | 41.8 | – | –
7 | O=c1c2cc(NS(=O)(=O)c3cccs3)ccc2nc2n1CCc1c-2[nH]c2ccccc12 | 40.8 | > 100 | > 100 | 37.7 | 42.4 | 41.9 | 39.2 | – | –
8 | O=c1c2cc(NS(=O)(=O)c3cccc(C(F)(F)F)c3)ccc2nc2n1CCc1c-2[nH]c2ccccc12 | 53.2 | > 100 | 3.82 | 49.1 | 55.9 | 53.5 | 50.7 | – | 3.01
9 | COc1ccc(S(=O)(=O)Nc2ccc3nc4n(c(=O)c3c2)CCc2c-4[nH]c3ccccc23)cc1OC | 45.2 | 51.2 | 10.9 | 40.4 | 51 | 47.7 | 44 | – | –
10 | O=c1c2cc(NS(=O)(=O)c3ccc(OC(F)(F)F)cc3)ccc2nc2n1CCc1c-2[nH]c2ccccc12 | 60.1 | 34.6 | 3.95 | 51.6 | 63.8 | 61.8 | 55.9 | Dose-dependent effect | 3.62
11 | O=c1c(O)c(-c2ccc(O)c(O)c2)oc2cc(O)cc(O)c12 [QUERCETIN] | 57.9 | – | – | 48.9 | 62.7 | 60.6 | 56.3 | – | –
12 | O=c1c2cc(NS(=O)(=O)c3ccc(Br)s3)ccc2nc2n1CCc1c-2[nH]c2ccccc12 | 55.1 | 83.4 | 60.3 | 52 | 58.2 | 56.2 | 52.3 | Dose-dependent effect | 2.91
13 | O=c1c2cc(NS(=O)(=O)c3ccc(F)cc3)ccc2nc2n1CCc1c-2[nH]c2ccccc12 | 45.5 | > 100 | 7.57 | 41.9 | 51.8 | 46.6 | 44.7 | – | 2.25
14 | CC(=O)c1ccc(S(=O)(=O)Nc2ccc3nc4n(c(=O)c3c2)CCc2c-4[nH]c3ccccc23)cc1 | 54.4 | > 100 | 25.8 | 46.7 | 59.8 | 57.7 | 48 | Dose-dependent effect | –
15 | O=c1c2cc(NS(=O)(=O)c3ccc([N+](=O)[O-])cc3)ccc2nc2n1CCc1c-2[nH]c2ccccc12 | 37.1 | > 100 | 16.5 | 32.4 | 31 | 33.5 | 33 | – | –
16 | O=c1c2cc(NS(=O)(=O)c3ccc(Cl)s3)ccc2nc2n1CCc1c-2[nH]c2ccccc12 | 55.1 | > 100 | 76.9 | 43.5 | 54.5 | 56 | 48 | – | –
17 | COc1ccc(S(=O)(=O)Nc2ccc3nc4n(c(=O)c3c2)CCc2c-4[nH]c3ccccc23)cc1 | 42.3 | > 100 | 8.01 | 39.3 | 49 | 43.2 | 51.8 | – | –
18 | O=c1c2cc(NS(=O)(=O)c3c(Cl)cccc3Cl)ccc2nc2n1CCc1c-2[nH]c2ccccc12 | 42.9 | 100 | 13.7 | 40.7 | 48.3 | 45.4 | 42.1 | – | –
19 | O=c1c2cc(NS(=O)(=O)c3ccc(F)c(Cl)c3)ccc2nc2n1CCc1c-2[nH]c2ccccc12 | 58.1 | 85.6 | 4.63 | 48.1 | 61.1 | 59.4 | 50.8 | Dose-dependent effect | 2.81
20 | O=c1c2cc(NS(=O)(=O)c3ccc(C(F)(F)F)cc3)ccc2nc2n1CCc1c-2[nH]c2ccccc12 | 56.1 | > 100 | 8.28 | 43.6 | 60.1 | 56.5 | 54.9 | Dose-dependent effect | 3.01
21 | COc1ccc(S(=O)(=O)Nc2ccc3nc4n(c(=O)c3c2)CCc2c-4[nH]c3ccccc23)c(OC)c1 | 52 | 77 | 7.58 | 49.6 | 51.1 | 56 | 51.1 | – | –
